How the values were obtained:
Assay type in all cases: in vivo, Mäuse
[1] = tested on: gegenüber Cyclophosphamid (NSC 26271) resistente Leukämieform von P 388; experiment: Cyclophosphamide-resistant P 388 leukaemia in mice, survival; conditions: 10 mice
Protocol: (§1) Die nachfolgenden Beispiele wurden durchgeführt nach Testvorschriften des National Cancer Institute Bethesda, Maryland 200014, veröffentlicht in "Cancer Chemotherapy Reports" Part. 3, Sept. '72, Vol. 3, Nr. 2. Als Wirksubstanz wurde verwendet α-Triglycidylisocyanurat (F 106° C) sowie β-Triglycidylisocyanurat (F 158 °C), beide mit 16,1 % Epoxidsauerstoffgehalt (Herstellung siehe US-PS 3,337,509).
(§2) Alle wäßrigen 1 %igen Injektionslösungen wurden unmittelbar vor der Applikation frisch hergestellt.
Eine gegenüber Cyclophosphamid (NSC 26271) resistente Leukämieform von P 388 wurde mit α-T3I und Cyclophosphamid behandelt. Jede Gruppe bestand aus 10 Mäusen.

Sarcom 180 = experiment: Sarcoma 180 i.p. in mice, survival; conditions: 30 mg/kg i.p., days 1 to 9
Protocol: as §1, §2
Durch i.p-Verabfolgung von 10^6 Zellen pro Maus wurde das Sarcom 180 gesetzt. Die unbehandelte Kontrollgrüppe hatte eine mittlere überlebenszeit von 20, 2 Tagen.

Leukämie L 1210 = experiment: Leukaemia L 1210 in mice, NCI protocol 1.100, survival; conditions: for Überlebende / ganze Gruppe, leukäm. M. / Überlebende / ganze Gruppe, Kontrollgruppe: after 30 days; for Überlebende / ganze Gruppe, Kontrollgruppe: control group
Protocol: as §1, §2
Bei Mäusen wurde gemäß Protokoll 1.100 (Seite 7 1.c.) Leukämie L 1210 durch i.p. Verabreichung von 0,1 ml verdünnter Erregerlösung entsprechend 10^5 Zellen erzeugt. Bei der Kontrollgruppe betrug die mittlere Überlebensdauer 8 Tage (m.s.t.).
B) Der Einfluß der Behandlungsplanung auf die therapeutische Wirksamkeit von α-TGI bei Tumor L 1210 nach 30 Tagen ist der nachfolgenden Tabelle I zu entnehmen.

[2] = Tolerated maximum daily dose in mice, i.p. aqueous solutions; conditions: clear toxic effects only at higher doses
Protocol: Im Tierexperiment hat sich die Verwendung von frisch hergestellten, wäßrigen Lösungen, die i.p. gegeben werden, als zweckmäßig erwiesen. Von α- beziehungsweise β-Triglycidylisocyanurat kann bei Mäusen die Maximaldosis p.die 100 mg/kg Maus betragen. Deutliche toxische Wirkungen treten erst bei höherer Dosierung auf. Als optimale Dosierung hat sich in vielen Fällen eine Gabe von 30 mg bis 60 mg/kg Maus während einer Applikationsdauer von 1 bis 9 Tagen bewährt.

Coloncarcinom 38 = experiment: Colon carcinoma 38 s.c. in mice, tumour weight; conditions: after 20 days (control 512 mg/Maus)
Protocol: as §1, §2
A)Gruppen von 10 Mäusen wurde etwa 1 mm^3 Coloncarcinom 38 s.c. implantiert. Das mittlere Turaorgetuicht betrug bei der unbehandelten Kontrollgruppe nach 20 Tagen: 512mg/Maus.

Coloncarcinom 26 = experiment: Colon carcinoma 26 i.p. in mice, survival; conditions: for Mäuse lebend, 60 Tage / alle Mäuse lebend (day up to which): groups of 10 mice
Protocol: as §1, §2
8) Durch i.p. Inplantation (1 mm^3 Coloncarcinom 26) wurde bei Gruppen von jeweils 10 Mäusen ein Ca gesetzt Die Behandlung erfolgte durch i.p.-Verabfolgung von α-TGI. In der nachfolgenden Tabelle III sind die Ergebnisse in Abhängigkeit der jeweils am 1., 5. und 9. Tag applizierten Menge wiedergegeben.

Lungencarcinom (Lewis) = experiment: Lewis lung carcinoma in mice, NCI protocol 1.400, inhibition of metastases; conditions: days 1 to 11, after 23 days
Protocol: as §1, §2
Gemäß Protokoll 1.400 (Seite 13 1.c.) wurden bei Mäusen Zellen, s.c. eines 1 mm^3 Stücks Lungencarcinom (Lewis) implantiert. Dann erfolgte vom 1. bis 11. Tag i.p. Verabfolgung von 40 mg/kg p.die an α-TGI bzw. 90 mg/kg p.die an β -TGI.

Ependymoblastom = experiment: Intracerebrally implanted ependymoblastoma in mice, survival; conditions: 40 mg/kg p.die, 9 days
Protocol: as §1, §2
Bei einer Testgruppe von Mäusen wurde durch intracerebra1 mm^3 eines Gewebes von Ependymoblastom implantiert. Die mittlere Überlebensdauer bei der Kontrollgruppe be- trug 19,3 Tage.

Melanom B16 = experiment: Melanoma B 16 in mice, NCI instruction 1.300, survival; conditions: days 1 to 9
Protocol: as §1, §2
bei Mäusen wurde gemäß Anweisung 1.300 das 1/10 Homogenzt teranom B 16 jeweils 0,5 ml pro Maus i.p, verabfolgt gergl. S. 11 1,c.).
Die Kontrollgruppe hatte eine mittlere Überlebenszeit von 15,3 Tagen (m.s.t.).
Behandelte Gruppen erhielten vom 1. bis 9. Tag verschiedene Mengen α-TGI i.p. In der nachfolgenden Tabelle II ist die mittlere überlebensdauer und T/C in Ahhängigkeit der p.die gegebenen Menge Wirkstoff wiedergegeben.

[3] = tested on: Tumorart P 388 (Leucämie); experiment: Leukaemia P 388 in mice, NCI protocol 1 200, survival; conditions: for Heilung: % of animals
Protocol: as §1, §2
Bei Mäusen wurde gemäß Protokoll 1 200 (Seite 9 l.c.) die Tumorart P 388 (Leucämie) i.p. mit 10^6 Zellen/Maus ge- setzt. Die unbehandelten Tiere hatten eine mittlere Überlebensdauer von 10,5 Tagen.
Bei Mäusen wurde gemäß Protokoll 1 200 (Seite 9 1.c.) die Tumorart P 388 Leucämie i.p. mit 10^6 Zellen/Maus gesetzt. Die unbehandelten Tiere hatten eine mittlere überlebensdauer von 10 Tagen.

[4] = 50 mg/kg p.die i.p., days 1 to 9
[5] = 50 mg/kg p.die i.p., days 1 to 9, group of 6 mice
[6] = 100 mg/kg p.die i.p., days 1 to 9

**Q.** Which T/C ([1]; 180 mg/kg) does the source give for `O=P1(N(CCCl)CCCl)NCCCO1` (stereo not shown) [Cyclophosphamid, reference compound] here?
**A.** 150%

**Q.** What about the “Überlebenszeit der behandelten Mäuse” value ([1]; 180 mg/kg) of the same compound?
**A.** < 30 Tage

**Q.** Which results are given for `O=c1n(CC2CO2)c(=O)n(CC2CO2)c(=O)n1CC1CO1` (single isomer, unassigned) [α-TGI, α-Triglycidylisocyanurat]?
**A.** T/C (Sarcom 180): 183%; Überlebende / ganze Gruppe, leukäm. M. (Leukämie L 1210; 40 mg 9x i.p. (1.bis 9.Tag)): 8/10; Überlebende / ganze Gruppe, Kontrollgruppe (Leukämie L 1210; 40 mg 9x i.p. (1.bis 9.Tag)): 8/8; Überlebende / ganze Gruppe, leukäm. M. (Leukämie L 1210; 50 mg 5x i.p. (1.bis 5.Tag)): 5/10; Überlebende / ganze Gruppe, Kontrollgruppe (Leukämie L 1210; 50 mg 5x i.p. (1.bis 5.Tag)): 7/8; T/C (Leukämie L 1210; [4]): 297%; mittlere Überlebensdauer (Leukämie L 1210; [4]): 23,8 Tage; 30 Tage erreichten (Leukämie L 1210; [5]): 3 Mäuse; Heilungsrate (Leukämie L 1210; [5]): ~50%; MTD ([2]; mouse, in vivo, ip, read-out: Maximaldosis p.die): 100 mg/kg/day; mittleres Tumorgewicht (Coloncarcinom 38; 50 mg/kg p.die on days 2, 9 and 16): 183 mg pro Maus; mittleres Tumorgewicht (Coloncarcinom 38; 50 mg/kg p.die on days 2 and 9): 153 mg pro Maus; Mäuse lebend, 60 Tage (Coloncarcinom 26; 25 mg i.p. on days 1, 5 and 9): 6 von 10; alle Mäuse lebend (day up to which) (Coloncarcinom 26; 25 mg i.p. on days 1, 5 and 9): 25 Tage; Mäuse lebend, 60 Tage (Coloncarcinom 26; 50 mg i.p. on days 1, 5 and 9): 60 Tage noch 10 Mäuse lebend; Mäuse lebend, 60 Tage (Coloncarcinom 26; 100 mg i.p. on days 1, 5 and 9): 4 Mäuse; alle Mäuse lebend (day up to which) (Coloncarcinom 26; 100 mg i.p. on days 1, 5 and 9): 49 Tage; Hemmung an Metastasen gegenüber der Kontrollgruppe (Lungencarcinom (Lewis); 40 mg/kg p.die i.p.): 92%; Mäuse überlebten 60 Tage ([1]; 40 mg/kg, days 1 to 9): alle; T/C ([1]; 40 mg/kg, days 1 to 9): 478%; T/C (Ependymoblastom): 165%; T/C (Melanom B16; 25 mg p.die i.p.): 227%; m. s. t. (Tage) (Melanom B16; 25 mg p.die i.p.): 36,0 Tage; T/C (Melanom B16; 50 mg p.die i.p.): 234%; m. s. t. (Tage) (Melanom B16; 50 mg p.die i.p.): 37,0 Tage; T/C (Melanom B16; 12,5 mg p.die i.p.): 188%; m. s. t. (Tage) (Melanom B16; 12,5 mg p.die i.p.): 29,8 Tage; T/C ([3]; 25 mg/kg p.die, 9 doses): 196%; T/C ([3]; 50 mg/kg p.die i.p., 9 days): 200%; Heilung ([3]; 50 mg/kg p.die, 9 days): 17%; T/C, Verlängerungsrate (mittlere Lebenserwartung gegenüber der Kontrollgruppe) ([3]; 100 mg/kg p.die i.p., 9 days): 285%; behandelte Mäuse lebten länger als 40 Tage (als geheilt anzusehen) ([3]; 100 mg/kg p.die i.p., 9 days, fraction of treated mice): Die Hälfte

**Q.** What does the source list for `O=c1n(CC2CO2)c(=O)n(CC2CO2)c(=O)n1CC1CO1` (single isomer, unassigned) [β-TGI, β-Triglycidylisocyanurat]?
**A.** T/C (Leukämie L 1210; [4]): 203%; mittlere Überlebensdauer (Leukämie L 1210; [4]): 16,3 Tage; T/C (Leukämie L 1210; [6]): 315%; mittlere Überlebensdauer (Leukämie L 1210; [6]): 25,2 Tage; Maximaldosis p.die [2]: 100 mg/kg Maus; Hemmung an Metastasen gegenüber der Kontrollgruppe (Lungencarcinom (Lewis); 90 mg/kg p.die i.p.): 87%; T/C ([3]; 25 mg/kg p.die, 9 doses): 174%; T/C ([3]; 50 mg/kg p.die i.p., 9 days): 179%; Heilung ([3]; 50 mg/kg p.die, 9 days): 17%; T/C, Verlängerungsrate (mittlere Lebenserwartung gegenüber der Kontrollgruppe) ([3]; 100 mg/kg p.die i.p., 9 days): 228%; Heilung ([3]; 100 mg/kg p.die, 9 days): 17%

**Q.** For `O=c1[nH]cc(F)c(=O)[nH]1` [Fluoruracil, reference compound], which “mittlere überlebensdauer” value (Coloncarcinom 26; positive comparison, dose not given, 10 mice) is on record?
**A.** 55 Tage

**Q.** What about the “Mäuse lebend am 60. Tag” value (Coloncarcinom 26; positive comparison, dose not given, of 10 mice) of the same compound?
**A.** 2 Mäuse

**Q.** What does the source list for `CC1(Cn2c(=O)n(CC3(C)CO3)c(=O)n(CC3(C)CO3)c2=O)CO1` (stereo not shown) [Tri-(2-methylglycidyl)-isocyanurat]?
**A.** T/C ([3]; 50 mg/kg p.die i.p., 9 days): 150%; T/C, Verlängerungsrate (mittlere Lebenserwartung gegenüber der Kontrollgruppe) ([3]; 100 mg/kg p.die i.p., 9 days): 170%
